Measurements from article PMC10907560, “Significant reduction of activity retention in the kidneys via optimized linker sequences in radiohybrid-based minigastrin analogs” (EJNMMI Research, 2024).
Like-named read-outs stand apart in the source and are kept apart here.

Key:
[1] = Lipophilicity, n-octanol/PBS distribution coefficient logD7.4; type: physicochemical; details: 177Lu-labeled peptide; n-octanol/PBS (1/1), n ≥ 5
Protocol: For determination of lipophilicity, the respective ^177Lu-Labeled peptide precursor (~ 1 MBq, 10 µL in 0.04 M HCl) was added to a solution of n-octanol/PBS (1/1, v/v, 1 mL) and vigourously mixed for 3 min at room temperature (n ≥ 5). Afterwards both phases were seperated using a Biofuge 15 centrifuge (Heraus Sepatech GmbH, Osterode, Germany) at 9,000 rpm for 5 min. 200 µL aliquots of both layers were collected separately, measured in a γ-counter (Perkin Elmer, Waltham, MA, USA) and the logD7.4 value was obtained.

[2] = target: T1, Human serum albumin (HSA) (Homo sapiens, UniProt P02768); experiment: Human serum albumin binding via high performance affinity chromatography (HPAC); type: in vitro ADME; details: Chiralpak HSA column, n = 1
T1 construct: purchased Daicel, Tokyo, Japan H13H-2433
Protocol: Human serum albumin (HSA) binding was determined via high performance affinity chromatography (HPAC), according to previously published protocols. Human serum albumin interaction was calculated according to the retention time (n = 1) of our compounds on a Chiralpak HSA column in dependence of nine reference compounds with known HSA interaction.
Human serum albumin binding was determined via high performance affinity chromatography. Therefore, a Chiralpak HSA column (50 × 3 mm, 5 µm, H13H-2433, Daicel, Tokyo, Japan) was used at a constant flow rate of 0.5 ml/min at room temperature. Mobile phase A consisted of a freshly prepared aqueous solution of NH4OAc (pH = 6.9, 50 mM) and mobile phase B of isopropanol. Calibration of the column was performed daily prior to experiments, by determining the retention times of nine reference substances displaying a HSA binding from 13 to 99%. HPLC gradient for all compounds tested was 100% A (0 to 3 min), followed by 80% A (3 to 40 min). All substances tested, were dissolved in a mixture of A/B (0.5 mg/mL, 1:1, v/v). OriginPro 2016G software (Northampton, United States) was used for non-linear regression and data evaluation.

[3] = Biodistribution at 24 h p.i. in AR42J tumor-bearing CB17-SCID mice; type: in vivo; details: mouse, 100 pmol, 100 pmol; for tissue to tissue ratio at 24 h: both sexes, CB17-SCID, total radioactivity
Protocol: (§1) Animal experiments were carried out according to the general animal welfare regulations in Germany (German animal protection act, in the edition of the announcement, dated 18 May 2006, as amended by Article 280 of 19 June 2020, approval no. ROB-55.2–1-2532.Vet_02-18–109 by the General Administration of Upper Bavaria) and the institutional guidelines for the care and use of animals. Therefore, CB17-SCID mice of both genders and aged 2–4 months (Charles River Laboratories International Inc., Sulzfeld, Germany) were used. After arrival at the in-house facilities, mice were allowed to acclimate for a minimum of one week before inoculation of AR42J cells. AR42J cells (6.0 × 10^6 cells per 200 μL) were suspended in a mixture (v/v = 1/1) of nutrient medium and Cultrex® Basement Membrane Matrix Type 3 (Trevigen Inc., Gaithersburg, MD, USA) and inoculated subcutaneously onto the right shoulder of CB17-SCID mice according to a previously reported protocol. Animals were excluded from the study when reaching one of the following endpoints: a weight loss higher than 20%, a tumor size above 1500 mm^3, an ulceration of the tumor, respiratory distress or change of behavior [8]. None of these criteria applied to any animal from the experiment. Neither randomization nor blinding was applied in the allocation of the experiments. Health status of the animals is specific pathogen free according to Federation of European Laboratory Animal Science Associations recommendation.
(§2) Biodistribution studies (n = 4) and µSPECT/CT imaging (n = 1) at 24 h p.i. were carried out as previously published. For all in vivo experiments, approximately 2–3 MBq (100 pmol) of the respective ^177Lu-labeled peptide were administered.
(§3) Table S2. Biodistribution data of [^177Lu]Lu-DOTA-rhCCK-70 and [^177Lu]Lu-DOTA-rhCCK-91 in selected organs at 24 h p.i. in AR42J tumor-bearing CB17-SCID mice (100 pmol each). Data are expressed as %ID/g, mean ± SD.
(§4) Table S3. Tumor-to-background ratios of [^177Lu]Lu-DOTA-rhCCK-70 and [^177Lu]Lu-DOTA-rhCCK-91 in selected organs at 24 h p.i. in AR42J tumor-bearing CB17-SCID mice (100 pmol each). Data are expressed as %ID/g, mean ± SD.

[4] = system: AR42J tumor-bearing CB17-SCID mice; experiment: as above; type: in vivo; details: for reduction of kidney accumulation and retention compared to [177Lu]Lu-DOTA-rhCCK-18: p < 0.0001
Protocol: as §1, §2, §3, §4

[5] = tumor/adrenal, n=4, Table S3, read-out: Tumor-to-background ratio, Adrenal
[6] = tumor/blood, n=4, Table S3, read-out: Tumor-to-background ratio, Blood
[7] = tumor/bone, n=4, Table S3, read-out: Tumor-to-background ratio, Bone
[8] = tumor/heart, n=4, Table S3, read-out: Tumor-to-background ratio, Heart
[9] = tumor/intestine, n=4, Table S3, read-out: Tumor-to-background ratio, Intestine
[10] = tumor/kidney, n=4, Table S3, read-out: Tumor-to-background ratio, Kidney
[11] = tumor/liver, n=4, Table S3, read-out: Tumor-to-background ratio, Liver
[12] = tumor/lung, n=4, Table S3, read-out: Tumor-to-background ratio, Lung
[13] = tumor/muscle, n=4, Table S3, read-out: Tumor-to-background ratio, Muscle
[14] = tumor/pancreas, n=4, Table S3, read-out: Tumor-to-background ratio, Pancreas
[15] = tumor/spleen, n=4, Table S3, read-out: Tumor-to-background ratio, Spleen
[16] = tumor/stomach, n=4, Table S3, read-out: Tumor-to-background ratio, Stomach
[17] = adrenal, n=4, mean ± SD, read-out: Biodistribution, Adrenal
[18] = blood, n=4, mean ± SD, read-out: Biodistribution, Blood
[19] = bone, n=4, mean ± SD, read-out: Biodistribution, Bone
[20] = heart, n=4, mean ± SD, read-out: Biodistribution, Heart
[21] = intestine, n=4, mean ± SD, read-out: Biodistribution, Intestine
[22] = kidney, n=4, mean ± SD, read-out: Biodistribution, Kidney
[23] = liver, n=4, mean ± SD, read-out: Biodistribution, Liver
[24] = lung, n=4, mean ± SD, read-out: Biodistribution, Lung
[25] = muscle, n=4, mean ± SD, read-out: Biodistribution, Muscle
[26] = pancreas, n=4, mean ± SD, read-out: Biodistribution, Pancreas
[27] = spleen, n=4, mean ± SD, read-out: Biodistribution, Spleen
[28] = stomach, n=4, mean ± SD, read-out: Biodistribution, Stomach
[29] = tumor (AR42J xenograft), n=4, mean ± SD, read-out: Biodistribution, Tumor (AR42J xenograft)

T1 sequence (P02768 25-609): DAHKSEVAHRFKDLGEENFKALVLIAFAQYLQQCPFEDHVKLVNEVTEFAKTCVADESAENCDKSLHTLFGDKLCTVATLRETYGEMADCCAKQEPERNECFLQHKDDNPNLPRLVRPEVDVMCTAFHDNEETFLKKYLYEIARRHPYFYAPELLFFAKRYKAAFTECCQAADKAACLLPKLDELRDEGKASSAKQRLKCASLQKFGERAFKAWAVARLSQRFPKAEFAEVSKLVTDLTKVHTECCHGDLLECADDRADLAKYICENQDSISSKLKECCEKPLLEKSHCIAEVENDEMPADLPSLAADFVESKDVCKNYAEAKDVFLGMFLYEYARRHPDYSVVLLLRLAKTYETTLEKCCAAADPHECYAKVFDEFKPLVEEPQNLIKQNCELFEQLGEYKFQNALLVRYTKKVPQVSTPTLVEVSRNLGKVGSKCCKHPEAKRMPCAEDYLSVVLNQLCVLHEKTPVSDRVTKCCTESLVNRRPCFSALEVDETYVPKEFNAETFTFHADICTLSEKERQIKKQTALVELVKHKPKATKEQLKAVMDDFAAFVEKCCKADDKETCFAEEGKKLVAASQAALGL

SMILES	logD [1]	HSA binding [2] [%]	tissue to tissue ratio at 24 h [3, 5]	tissue to tissue ratio at 24 h [3, 6]	tissue to tissue ratio at 24 h [3, 7]	tissue to tissue ratio at 24 h [3, 8]	tissue to tissue ratio at 24 h [3, 9]	tissue to tissue ratio at 24 h [3, 10]	tissue to tissue ratio at 24 h [3, 11]	tissue to tissue ratio at 24 h [3, 12]	tissue to tissue ratio at 24 h [3, 13]	tissue to tissue ratio at 24 h [3, 14]	tissue to tissue ratio at 24 h [3, 15]	tissue to tissue ratio at 24 h [3, 16]	tissue uptake at 24 h [3, 17] [%ID/g]	tissue uptake at 24 h [3, 18] [%ID/g]	tissue uptake at 24 h [3, 19] [%ID/g]	tissue uptake at 24 h [3, 20] [%ID/g]	tissue uptake at 24 h [3, 21] [%ID/g]	tissue uptake at 24 h [3, 22] [%ID/g]	other results
CCCC[C@@H](C(=O)N[C@@H](CC(=O)O)C(=O)N[C@@H](Cc1cccc2ccccc12)C(N)=O)N(C)C(=O)[C@H](Cc1c[nH]c2ccccc12)NC(=O)CCOCCOCCOCCOCCNC(=O)CC[C@@H](NC(=O)CCOCCOCCOCCOCCOCCOCCOCCOCCNC(=O)CC[C@@H](NC(=O)[C@@H](CNC(=O)c1ccc([Si](F)(C(C)(C)C)C(C)(C)C)cc1)NC(=O)CN1CCN(CC(=O)O)CCN(CC(=O)O)CCN(CC(=O)O)CC1)C(=O)O)C(=O)O [[^nat/177Lu]Lu-DOTA-rhCCK-70, DOTA-D-Dap(p-SiFA)-D-γ-Glu-(PEG)7-D-γ-Glu-(PEG)3-Trp-(N-Me)Nle-Asp-1-Nal-NH2, metal not drawn]	-1.67	89.3	20.5 ± 8.5	143 ± 49	9.48 ± 8.05	55.4 ± 13.4	27.4 ± 7.7	1.44 ± 0.12	4.26 ± 1.7	33.4 ± 8.53	276 ± 189	55.2 ± 19.6	6.95 ± 2.17	1.97 ± 0.24	0.55 ± 0.46	0.1 ± 0.04	2.4 ± 1.5	0.23 ± 0.05	0.48 ± 0.13	8.4 ± 0.8	tissue to tissue ratio at 24 h ([3]; tumor/kidney, read-out: tumor-to-kidney ratio): 1.4 ± 0.1; tissue to tissue ratio at 24 h ([3]; tumor/stomach, read-out: tumor-to-stomach ratio): 2 ± 0.2; tissue uptake at 24 h ([3]; bone, depending on 177Lu-batch, read-out: activity levels in the bone, range observed (correlating with free lutetium-177)): 0.5 to 4.3 %ID/g; tissue uptake at 24 h [3, 23]: 3.5 ± 1.7 %ID/g; tissue uptake at 24 h [3, 24]: 0.39 ± 0.12 %ID/g; tissue uptake at 24 h [3, 25]: 0.06 ± 0.03 %ID/g; tissue uptake at 24 h [3, 26]: 0.24 ± 0.08 %ID/g; tissue uptake at 24 h [3, 27]: 1.9 ± 0.6 %ID/g; tissue uptake at 24 h [3, 28]: 6.2 ± 0.9 %ID/g; tissue uptake at 24 h [3, 29]: 12 ± 0.8 %ID/g; decrease of activity levels in the tumor compared to [177Lu]Lu-DOTA-rhCCK-18 [4]: 2 fold; tumor-to-kidney ratio [4]: 1.45 ± 0.12; Biodistribution, Kidney ([4]; 100 pmol, n=4, mean ± SD): 8.37 ± 0.78 %ID/g; Biodistribution, Liver ([4]; 100 pmol, n=4, mean ± SD): 3.48 ± 1.66 %ID/g; Biodistribution, Spleen ([4]; 100 pmol, n=4, mean ± SD): 1.92 ± 0.60 %ID/g; Biodistribution, Stomach ([4]; 100 pmol, n=4, mean ± SD): 6.21 ± 0.85 %ID/g; reduction of kidney accumulation and retention compared to [177Lu]Lu-DOTA-rhCCK-18 [4]: 16 fold
CCCC[C@@H](C(=O)N[C@@H](CC(=O)O)C(=O)N[C@@H](Cc1cccc2ccccc12)C(N)=O)N(C)C(=O)[C@H](Cc1c[nH]c2ccccc12)NC(=O)CCOCCOCCOCCOCCNC(=O)CC[C@@H](NC(=O)CCOCCOCCOCCOCCOCCNC(=O)CC[C@@H](NC(=O)[C@@H](CNC(=O)C[N+](C)(C)Cc1ccc([Si](F)(C(C)(C)C)C(C)(C)C)cc1)NC(=O)CN1CCN(CC(=O)O)CCN(CC(=O)O)CCN(CC(=O)O)CC1)C(=O)O)C(=O)O [[^nat/177Lu]Lu-DOTA-rhCCK-91, DOTA-D-Dap(SiFAlin)-D-γ-Glu-(PEG)4-D-γ-Glu-(PEG)3-Trp-(N-Me)Nle-Asp-1-Nal-NH2, metal not drawn]	-1.66 ± 0.08	90.0	17.3 ± 1.9	185 ± 32	11.8 ± 0.72	25.3 ± 5.2	12.3 ± 5.1	1.14 ± 0.12	3.8 ± 0.37	29.3 ± 4.2	147 ± 65	8.98 ± 2.1	7.35 ± 0.75	1.95 ± 0.27	0.44 ± 0.09	0.04 ± 0.01	0.64 ± 0.12	0.31 ± 0.07	0.68 ± 0.16	6.6 ± 0.5	tissue uptake at 24 h [3, 23]: 2 ± 0.1 %ID/g; tissue uptake at 24 h [3, 24]: 0.26 ± 0.05 %ID/g; tissue uptake at 24 h [3, 25]: 0.06 ± 0.01 %ID/g; tissue uptake at 24 h [3, 26]: 0.9 ± 0.32 %ID/g; tissue uptake at 24 h [3, 27]: 1 ± 0.3 %ID/g; tissue uptake at 24 h [3, 28]: 4 ± 1.2 %ID/g; tissue uptake at 24 h [3, 29]: 7.5 ± 1 %ID/g; decrease of activity levels in the tumor compared to [177Lu]Lu-DOTA-rhCCK-18 [4]: three; Biodistribution, Kidney ([4]; 100 pmol, n=4, mean ± SD): 6.58 ± 0.53 %ID/g; Biodistribution, Liver ([4]; 100 pmol, n=4, mean ± SD): 1.96 ± 0.08 %ID/g; Biodistribution, Spleen ([4]; 100 pmol, n=4, mean ± SD): 1.04 ± 0.26 %ID/g; Biodistribution, Stomach ([4]; 100 pmol, n=4, mean ± SD): 3.99 ± 1.16 %ID/g; Biodistribution, Tumor (AR42J xenograft) ([4]; 100 pmol, n=4, mean ± SD): 7.47 ± 1.01 %ID/g; reduction of kidney accumulation and retention compared to [177Lu]Lu-DOTA-rhCCK-18 [4]: 20 fold
